After the bases stand the sugars from the 5' end (letter, count) and the backbone: PS all phosphorothioate, else s phosphorothioate and o phosphodiester by linkage. Methylation of C is not given here. e = 2'-O-(2-methoxyethyl) (MOE); l = locked nucleic acid (LNA); d = 2'-deoxy (DNA)
Legend:
SNHG14 = conditions: ASO
SOD1 = conditions: ASO

| Sequence | target mRNA inhibition (SNHG14; Human Neuronal Cell, 7.5 µM) | target mRNA inhibition (SNHG14; Human Neuronal Cell, 0.2 µM) | target mRNA inhibition (SNHG14; Human Neuronal Cell, 1 µM) | also measured |
| --- | --- | --- | --- | --- |
| GTTCTACTATACTTTCCT (sugars l1 d2 l1 d11 l3, PS) | 62% |  |  |  |
| TTTTTTTCTTACTATCTTCA (sugars lddddddddddddldlddll, PS) | 55% |  |  |  |
| TATACCTTTCTTTAACCCTT (sugars ldddddldddddddddldll, PS) | 66% |  |  |  |
| GCCACAACATCTATTT (sugars l4 d10 l2, PS) |  | 37% | 38% |  |
| AAGATCATTCTCAACAAT (sugars l4 d9 l5, PS) | 52% |  |  |  |
| TGTTTCCATCTACTATTA (sugars lddldlddddddddddll, PS) | 59% |  |  |  |
| CATCTGATCTCACACAT (sugars l4 d11 l2, PS) |  | 29% | 46% |  |
| ATTTTTTTCTTACTATCTTC (sugars lddddlddddddddldldll, PS) | 63% |  |  |  |
| GATCATTCTCAACAATT (sugars l1 d1 l3 d7 l5, PS) | 22% |  |  |  |
| TACTCTGCAATACACC (sugars l1 d1 l1 d10 l3, PS) | 60% |  |  |  |
| CAACATTATTAACCACCTT (sugars lldlldddddddddldlll, PS) | 49% |  |  |  |
| CCATCTAATGATTATT (sugars l4 d10 l2, PS) |  | 26% | 21% |  |
| TGAAAATCTCAACTACCAT (sugars lddldlddddddldddlll, PS) | 19% |  |  |  |
| ATCATTCTCAACAATTAA (sugars l5 d8 l1 d1 l3, PS) | 59% |  |  |  |
| AGTTCTACTATACTTTC (sugars llddlddddddldllll, PS) | 18% |  |  |  |
| CTACAAATTCAATTTACT (sugars l2 d12 l4, PS) |  | 3% | 10% |  |
| CTGTTTATACCCTTTCCA (sugars l1 d1 l1 d13 l2, PS) | 50% |  |  |  |
| TTTCCTCTGCTTATAAC (sugars l4 d11 l2, PS) |  | 34% | 56% |  |
| AGTTCTACTATACTTTCC (sugars ldlddddddddddlddll, PS) | 61% |  |  |  |
| TTTTATACCTTTCTTTAACC (sugars l1 d5 l1 d10 l3, PS) | 38% |  |  |  |
| TACACTTAATTATACTTC (sugars l2 d12 l4, PS) |  | 26% | 42% |  |
| GTTCTACTATACTTTCCT (sugars lddldldddddddlddll, PS) | 55% |  |  |  |

| Sequence | target mRNA inhibition (SNHG14; Human Neuronal Cell, 7.5 µM) | target mRNA inhibition (SNHG14; Human Neuronal Cell, 0.2 µM) | target mRNA inhibition (SNHG14; Human Neuronal Cell, 1 µM) | also measured |
| --- | --- | --- | --- | --- |
| TTGCTTCCAATTTATTT (sugars l4 d11 l2, PS) |  | 25% | 44% |  |
| TTATAGCCATTCTATCT (sugars lldddddddddldldll, PS) | 56% |  |  |  |
| TTCAGCTTTTAACCAGAGTG (sugars l2 d15 l3, PS) | 73% |  |  |  |
| TATAGACCCAAACTAT (sugars l3 d10 l3, PS) |  | 15% | 26% |  |
| TTCCAGCTTATTTACCT (sugars l3 d12 l2, PS) |  | 41% | 26% |  |
| TATTCTTACCGTCTTTA (sugars l3 d11 l3, PS) |  | 40% | 63% |  |
| CCAGCATATTATATAC (sugars l3 d10 l3, PS) |  | 27% | 23% |  |
| TTTATCAATATCTTCTCAC (sugars l1 d12 l2 d1 l3, PS) | 60% |  |  |  |
| TTATACCTTTCTTTAACCCT (sugars ldldddddddddddddldll, PS) | 53% |  |  |  |
| CTTTCCATTTATTTCCATTT (sugars ldddldldddddddddddll, PS) | 53% |  |  |  |
| TTTTTATACCTTTCTTTAAC (sugars ldllddddddddddlldlll, PS) | 57% |  |  |  |
| CCTACATCTCATACTT (sugars l2 d12 l2, PS) |  | -3% | -3% | target mRNA inhibition (SNHG14; Human Neuronal Cell, 5 µM): 11% |
| AAAGATCATTCTCAACAA (sugars ldllldddddddlldlll, PS) | 65% |  |  |  |
| TTATAGCCATTCTATCT (sugars ldldlddddddldddll, PS) | 47% |  |  |  |
| TTATAGCCATTCTATCT (sugars ldldddddddddldlll, PS) | 53% |  |  |  |
| TACCTACATCTCATACTT (sugars l4 d12 l2, PS) |  | -19% | 3% | target mRNA inhibition (SNHG14; Human Neuronal Cell, 5 µM): 7%; target mRNA inhibition (SNHG14; Mouse Primary Neuronal Cell, 0.005 µM): 94.8% |
| GATCATTCTCAACAATTAA (sugars lddlldddddddlddllll, PS) | 55% |  |  |  |
| AAAATCTCAACTACCATTT (sugars ldldllddddddddlllll, PS) | 31% |  |  |  |
| TTCTGTATACACCATCCC (sugars ldlddddddddddlddll, PS) | 63% |  |  |  |
| AGCAACATTATTAACCACC (sugars lddldlddddddldddlll, PS) | 52% |  |  |  |
| TCAGCACGCACACGGCCTTC (sugars e5 d10 e5, PS) |  |  |  | target mRNA inhibition (SOD1; HepG2, 0.1875 µM): 6%; target mRNA inhibition (SOD1; HepG2, 0.75 µM): 12%; target mRNA inhibition (SOD1; HepG2, 3 µM): 51%; target mRNA inhibition (SOD1; HepG2, 4 µM): 52%; target mRNA inhibition (SOD1; HepG2, 12 µM): 88% |

— the OligoGym collection
